Experimental data as given in patent US12624012B2, “14-chloro-β-elemene nitric oxide donor derivative and preparation method and use thereof” (HANGZHOU NORMAL UNIVERSITY, priority 2021, dated 2026).
Where two headings read alike, the source gives them in different places.

Experiments:
[1] = In vitro NO release test (incubation with L-cysteine, OD at 550 nm); conditions: 100 μM solution with cysteine solution, 37° C.
Method: • (1) Sodium nitrite solutions with different concentrations were prepared. A calibration curve was drawn. • (2) The sample was treated. A 100 μM solution was prepared. 2.5 mL of the prepared compound solution and 2.5 mL of the cysteine solution were taken and incubated at 37° C. for 120 min, and the resulting mixture was sampled at different time points. • (3) A blank hole and a standard hole were set. 160 μL of the sample was collected and mixed evenly with 0.08 mL of a developer and stood at 37° C. for 15 min. At λ=550 nm, the OD value of absorbance was measured by the enzyme marker. The NO release levels were obtained by substituting the value into the standard curve.

SW620 = assay: In vitro anti-tumor activity evaluation test (CCK-8), SW620; assay type: cell-based, human; conditions: for inhibition at 1 µM: read-out: Inhibitory rates against tumor cell lines; for IC50: read-out: IC50 against different tumor cell lines
Method: (§1) • (1) Cells were digested and counted. Cell suspensions (H520, SW620 5.0×10^4 cells/mL, and U87MG 3.5×10^4 cells/mL) were prepared. 100 μL of cell suspension was added to each well of a 96-well cell culture plate. • (2) The 96-well cell culture plate was incubated in a 37° C., 5%, CO2 incubator for 24 h. • (3) A drug was diluted with a culture medium to a desired working solution concentration. 100 μL of the corresponding drug-containing culture medium was added to each well. At the same time, a negative control group and a positive control group were set up. • (4) The 96-well cell culture plate was incubated in a 37° C., 5%, CO2 incubator for 72 h. • (5) The 96-well plate was stained with CCK-8, and at λ=450 nm, the OD value was determined. • 1) 10 μL of CCK-8 was added to each well. The culture plate continued to be incubated in the incubator for 2-3 h. • 2) The culture plate was rocked for 10 min to gently mix and remove air bubbles from the 96-well plate. • 3) At λ=450 nm, the OD value of each well was read by the enzyme marker, and the inhibitory rates were calculated. • (6) According to the following equation (1), the growth inhibitory rate of the tumor cells was obtained. The obtained results were substituted into an IC 50 calculation software SPSS17.0 to find out the IC50 value.

U87MG = assay: In vitro anti-tumor activity evaluation test (CCK-8), U87MG; assay type: cell-based, human; conditions: 72 h; for inhibition at 1 µM: read-out: Inhibitory rates against tumor cell lines; for IC50: read-out: IC50 against different tumor cell lines
Method: as §1

NCI-H520 = assay: In vitro anti-tumor activity evaluation test (CCK-8), NCI-H520; assay type: cell-based, human; conditions: for inhibition at 1 µM: read-out: Inhibitory rates against tumor cell lines; for IC50: read-out: IC50 against different tumor cell lines
Method: as §1

[2] = Homo sapiens, SW-620, SW620, 1 μM, 72 h
[3] = Homo sapiens, U-87 MG, U87MG, 1 μM
[4] = Homo sapiens, NCI-H520, 1 μM, 72 h

Compound	IC50 (U87MG; Homo sapiens, U-87 MG, U87MG) [nM]	IC50 (NCI-H520; Homo sapiens, NCI-H520, 72 h) [nM]	NO-release concentrations ([1]; 5 min) [µM]	NO-release concentrations ([1]; 10 min) [µM]	NO-release concentrations ([1]; 20 min) [µM]	NO-release concentrations ([1]; 30 min) [µM]	NO-release concentrations ([1]; 60 min) [µM]	NO-release concentrations ([1]; 90 min) [µM]	NO-release concentrations ([1]; 120 min) [µM]	inhibition at 1 µM (SW620; [2]) [%]	inhibition at 1 µM (U87MG; [3]) [%]	inhibition at 1 µM (NCI-H520; [4]) [%]	other results
C=C[C@]1(C)CC[C@@H](C(=C)CN(CCOC(=O)CCCC(=O)OCC#CCOc2no[n+]([O-])c2S(=O)(=O)c2ccccc2)C(C)C)C[C@H]1C(=C)CCl [Example 8]			10.55	12.34	15.52	18.95	29.50	43.00	55.33	10.8 ± 3.2	4.5 ± 1	5.6 ± 1.6	
C=C[C@]1(C)CC[C@@H](C(=C)CN(CCOC(=O)CCC(=O)OCC#CCOc2no[n+]([O-])c2S(=O)(=O)c2ccccc2)C(C)C)C[C@H]1C(=C)CCl [Example 7, 4-((4-((4-(2-((2-((1R,3R,4S)-3-(3-chloroprop-1-en-2-yl)-4-methyl-4-vinylcyclohexyl)allyl)(isopropyl)amino)ethyoxyl)-4-oxobutanoyl)oxy)but-2-yn-1-yl)oxy)-3-(phenylsulfonyl)-1,2,5-oxadiazole 2-oxide]													IC50 (SW620; Homo sapiens, SW-620, 72 h): 1110 ± 115 nM; inhibition at 1 µM (SW620; Homo sapiens, SW-620, 72 h): 46.6 ± 1.2%; IC50 (U87MG; Homo sapiens, U-87 MG): 882 ± 34 nM; inhibition at 1 µM (U87MG; Homo sapiens, U-87 MG): 56.7 ± 0.9%; inhibition at 1 µM (NCI-H520; Homo sapiens, NCI-H520, 72 h): 44.5 ± 2.2%
C=C[C@]1(C)CC[C@@H](C(=C)CN2CCN(CCOC(=O)CCC(=O)OCC#CCOc3no[n+]([O-])c3S(=O)(=O)c3ccccc3)CC2)C[C@H]1C(=C)CCl [Example 23, 4-((4-((4-(2-(4-(2-((1R,3R,4S)-3-(3-chloroprop-1-en-2-yl)-4-methyl-4-vinylcyclohexyl)allyl)piperazin-1-yl)ethyoxyl)-4-oxobutanoyl)oxy)but-2-yn-1-yl)oxy)-3-(phenylsulfonyl)-1,2,5-oxadiazole 2-oxide]			4.74	5.95	7.49	7.63	8.44	13.57	17.82	21.2 ± 2.1	33.4 ± 1.5	30.3 ± 2.9	
C=C[C@]1(C)CC[C@@H](C(=C)CN(C)CCOC(=O)CCC(=O)OCC#CCOc2no[n+]([O-])c2S(=O)(=O)c2ccccc2)C[C@H]1C(=C)CCl [Example 3, 4-((4-((4-(2-((2-((1R,3R,4S)-3-(3-chloroprop-1-en-2-yl)-4-methyl-4-vinylcyclohexyl)allyl)(methyl)amino)ethyoxyl)-4-oxobutanoyl)oxy)but-2-yn-1-yl)oxy)-3-(phenylsulfonyl)-1,2,5-oxadiazole 2-oxide]			10.78	12.02	15.83	19.79	32.99	48.39	58.84	30.1 ± 5.2	34.9 ± 0.6	35 ± 2.2	
C=CC1(C)CCC(C(=C)CCl)CC1C(=C)CCl (stereo not drawn) [13,14-dichloro-β-elemene, reference compound]													Inhibitory rates against tumor cell lines (SW620; SW620, 1 μM, 72 h): 3.3 ± 1.0%; IC50 (SW620; SW620, 72 h): > 100000 nM; Inhibitory rates against tumor cell lines (U87MG; U87MG, 1 μM): 3.5 ± 1.0%; IC50 (U87MG; U87MG): > 100000 nM; Inhibitory rates against tumor cell lines (NCI-H520; NCI-H520, 1 μM, 72 h): 0.9 ± 3.0%; IC50 (NCI-H520; NCI-H520, 72 h): > 100000 nM

Continued, in another order:

IC50 (U87MG; Homo sapiens, U-87 MG, U87MG) [nM]	IC50 (NCI-H520; Homo sapiens, NCI-H520, 72 h) [nM]	Compound	NO-release concentrations ([1]; 5 min) [µM]	NO-release concentrations ([1]; 10 min) [µM]	NO-release concentrations ([1]; 20 min) [µM]	NO-release concentrations ([1]; 30 min) [µM]	NO-release concentrations ([1]; 60 min) [µM]	NO-release concentrations ([1]; 90 min) [µM]	NO-release concentrations ([1]; 120 min) [µM]	inhibition at 1 µM (SW620; [2]) [%]	inhibition at 1 µM (U87MG; [3]) [%]	inhibition at 1 µM (NCI-H520; [4]) [%]	other results
369 ± 25		C=C[C@]1(C)CC[C@@H](C(=C)CN(CCOC(=O)CCC(=O)OCCOc2no[n+]([O-])c2S(=O)(=O)c2ccccc2)C(C)C)C[C@H]1C(=C)CCl [Example 5, 4-(2-((4-(2-((2-((1R,3R,4S)-3-(3-chloroprop-1-en-2-yl)-4-methyl-4-vinylcyclohexyl)allyl)(isopropyl)amino)ethyoxyl)-4-oxobutanoyl)oxy)ethyoxyl)-3-(phenylsulfonyl)-1,2,5-oxadiazole 2-oxide]	0.59	41.61	48.58	2.57	5.58	9.22	13.64	33 ± 2.5	47.1 ± 0.9	44.2 ± 1.3	
2160 ± 548	1050 ± 13	C=C[C@]1(C)CC[C@@H](C(=C)CN2CCC(COC(=O)CCCC(=O)OCC#CCOc3no[n+]([O-])c3S(=O)(=O)c3ccccc3)CC2)C[C@H]1C(=C)CCl [Example 16, 4-((4-((5-((1-(2-((1R,3R,4S)-3-(3-chloroprop-1-en-2-yl)-4-methyl-4-vinylcyclohexyl)allyl)piperidin-4-yl)methoxyl)-5-oxopentanoyl)oxy)but-2-yn-1-yl)oxy)-3-(phenylsulfonyl)-1,2,5-oxadiazole 2-oxide]	16.99	18.93	22.62	27.04	42.47	64.24	86.29	39.8 ± 1.9	52.2 ± 3.4	52.3 ± 1.1	
985 ± 12		C=C[C@]1(C)CC[C@@H](C(=C)CN2CCCC(COC(=O)CCC(=O)OCC#CCOc3no[n+]([O-])c3S(=O)(=O)c3ccccc3)C2)C[C@H]1C(=C)CCl (stereo partly drawn) [Example 19, 4-((4-((4-((1-(2-((1R,3R,4S)-3-(3-chloroprop-1-en-2-yl)-4-methyl-4-vinylcyclohexyl)allyl)piperidin-3-yl)methoxyl)-4-oxobutanoyl)oxy)but-2-yn-1-yl)oxy)-3-(phenylsulfonyl)-1,2,5-oxadiazole 2-oxide]	13.76	15.87	19.21	22.88	34.60	48.73	56.52	40.6 ± 2.8	41.9 ± 1.1	46.1 ± 2.7	
	1040 ± 33	C=C[C@]1(C)CC[C@@H](C(=C)CN2CCC(COC(=O)CCC(=O)OCC#CCOc3no[n+]([O-])c3S(=O)(=O)c3ccccc3)CC2)C[C@H]1C(=C)CCl [Example 15, 4-((4-((4-((1-(2-((1R,3R,4S)-3-(3-chloroprop-1-en-2-yl)-4-methyl-4-vinylcyclohexyl)allyl)piperidin-4-yl)methoxyl)-4-oxobutanoyl)oxy)but-2-yn-1-yl)oxy)-3-(phenylsulfonyl)-1,2,5-oxadiazole 2-oxide]	8.67	10.07	12.979	15.92	25.47	36.31	48.15	31.3 ± 0.3	40.5 ± 3.3	45.9 ± 1.4	
477 ± 11	846 ± 27	C=C[C@]1(C)CC[C@@H](C(=C)CN2CCC(COC(=O)CCCC(=O)OCCOc3no[n+]([O-])c3S(=O)(=O)c3ccccc3)CC2)C[C@H]1C(=C)CCl [Example 14, 4-(2-((5-((1-(2-((1R,3R,4S)-3-(3-chloroprop-1-en-2-yl)-4-methyl-4-vinylcyclohexyl)allyl)piperidin-4-yl)methoxyl)-5-oxopentanoyl)oxy)ethyoxyl)-3-(phenylsulfonyl)-1,2,5-oxadiazole 2-oxide]	12.34	13.53	15.94	18.96	29.94	45.42	62.49	55.4 ± 1.5	54.8 ± 1.9	50.1 ± 1.1	IC50 (SW620; Homo sapiens, SW-620, SW620, 72 h): 814 ± 68 nM
